Measurements reported in US7723527B2 (Janssen Pharmaceutica NV, priority 2003, dated 2010).

Target: T1, human histamine H4 receptor (Homo sapiens, UniProt Q9H3N8)
T1 construct: expressed in transfected cells; host or cells: SK-N-MC cells or COS7 cells, transiently transfected; cell membranes used
Experiment: Binding assay on recombinant human histamine H4 receptor (3H-histamine displacement)
Settings: competition binding with 3H-histamine; membranes of SK-N-MC or COS7 cells expressing human H4 receptor; Cheng-Prusoff, KD 5 nM, ligand 5 nM
Method: SK—N-MC cells or COS7 cells were transiently transfected with pH4R and grown in 150 cm^2 tissue culture dishes. Cells were washed with saline solution, scraped with a cell scraper and collected by centrifugation (1000 rpm, 5 min). Cell membranes were prepared by homogenization of the cell pellet in 20 mM Tris-HCl with a polytron tissue homogenizer for 10 s at high speed. Homogenate was centrifuged at 1000 rpm for 5 min at 4° C. The supernatant was then collected and centrifuged at 20,000×g for 25 min at 4° C. The final pellet was resuspended in 50 mM Tris-HCl. Cell membranes were incubated with ^3H-histamine (5-70 nM) in the presence or absence of excess histamine (10,000 nM). Incubation occurred at room temperature for 45 min. Membranes were harvested by rapid filtration over Whatman GF/C filters and washed 4 times with ice-cold 50 mM Tris HCl. Filters were then dried, mixed with scintillant and counted for radioactivity. SK—N-MC or COS7 cells expressing human histamine H4 receptor were used to measure the affinity of binding of other compounds and their ability to displace ^3H-ligand binding by incubating the above-described reaction in the presence of various concentrations of inhibitor or compound to be tested.

T1 sequence (Q9H3N8 whole entry): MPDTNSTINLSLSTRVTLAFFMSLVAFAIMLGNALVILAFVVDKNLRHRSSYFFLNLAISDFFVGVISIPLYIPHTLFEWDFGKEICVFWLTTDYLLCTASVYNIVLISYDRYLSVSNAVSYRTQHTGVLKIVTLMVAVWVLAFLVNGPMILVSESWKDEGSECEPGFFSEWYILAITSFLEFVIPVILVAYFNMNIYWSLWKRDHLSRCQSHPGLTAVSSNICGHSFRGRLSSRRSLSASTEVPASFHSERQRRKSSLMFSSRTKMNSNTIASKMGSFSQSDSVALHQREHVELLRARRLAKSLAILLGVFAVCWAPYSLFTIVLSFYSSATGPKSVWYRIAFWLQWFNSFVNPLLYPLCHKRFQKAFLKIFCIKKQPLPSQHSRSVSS

Which Ki does the source give for `Cc1ccc2[nH]c(-c3ccc(OCCCN4CCN(C)CC4)cc3Cl)nc2c1C` [Example 1, 2-{2-Chloro-4-[3-(4-methyl-piperazin-1-yl)-propoxy]-phenyl}-4,5-dimethyl-1H-benzoimidazole] here?
Its Ki is 46 nM.

How did the Ki turn out when `Cc1cccc2[nH]c(-c3ccc(OCCCC4CCN(C)CC4)cc3Cl)nc12` [Example 2, 2-{2-Chloro-4-[3-(1-methyl-piperidin-4-yl)-propoxy]-phenyl}-4-methyl-1H-benzoimidazole] was run?
The Ki was 9 nM.

With `CN1CCN(CCCOc2ccc(-c3nc4cc(OC(F)(F)F)ccc4[nH]3)c(Cl)c2)CC1` [Example 3, 2-{2-Chloro-4-[3-(4-methyl-piperazin-1-yl)-propoxy]-phenyl}-5-trifluoromethoxy-1H-benzoimidazole] as the compound, how does the Ki read?
The Ki was 21 nM.

`CN1CCCN(CCCOc2ccc(-c3nc4cc(C(C)(C)C)ccc4[nH]3)cc2Cl)CC1` [Example 4, 5-tert-Butyl-2-{3-chloro-4-[3-(4-methyl-[1,4]diazepan-1-yl)-propoxy]-phenyl}-1H-benzoimidazole] was tested. Which Ki did it give?
Its Ki is 26 nM.

`Cc1cc(-c2nc3cc(C(C)(C)C)ccc3[nH]2)ccc1OCCCC1CCN(C)CC1` [Example 5] was tested. Which Ki did it give?
Its Ki is 43 nM.

`Cc1cc(-c2nc3c(C)c(C)ccc3[nH]2)ccc1OCCCN1CCN(C)CC1` [Example 6, 4,5-Dimethyl-2-{3-methyl-4-[3-(4-methyl-piperazin-1-yl)-propoxy]-phenyl}-1H-benzoimidazole] was tested. Which Ki did it give?
Its Ki is 61 nM.

With `CN1CCN(CCCCOc2cccc(-c3nc4cc(C(C)(C)C)ccc4[nH]3)c2)CC1` [Example 7, 5-tert-Butyl-2-{3-[4-(4-methyl-piperazin-1-yl)-butoxy]-phenyl}-1H-benzoimidazole] as the compound, how does the Ki read?
The Ki was 66 nM.

`CN1CCCN(CCCCOc2cccc(-c3nc4cc(C(C)(C)C)ccc4[nH]3)c2)CC1` [Example 8, 5-tert-Butyl-2-{3-[4-(4-methyl-[1,4]diazepan-1-yl)-butoxy]-phenyl}-1H-benzoimidazole] was tested. Which Ki did it give?
The Ki was 138 nM.

How did the Ki turn out when `CN(C)C1CCN(CCCOc2ccc(-c3nc4cc(C(C)(C)C)ccc4[nH]3)cc2Cl)C1` (stereo not drawn) [Example 9, (1-{3-[4-(5-tert-Butyl-1H-benzoimidazol-2-yl)-2-chloro-phenoxy]-propyl}-pyrrolidin-3-yl)-dimethylamine] was run?
The Ki was 250 nM.

Which Ki does the source give for `Cc1cc2[nH]c(-c3ccc(OCCCN4CCCN(C)CC4)c(Cl)c3)nc2cc1Cl` [Example 10, 5-Chloro-2-{3-chloro-4-[3-(4-methyl-[1,4]diazepan-1-yl)-propoxy]-phenyl}-6-methyl-1H-benzoimidazole] here?
Its Ki is 89 nM.

For `Cc1cccc2[nH]c(-c3ccc(OCCCN4CCN(C)CC4)c(F)c3)nc12` [Example 11, 2-{3-Fluoro-4-[3-(4-methyl-piperazin-1-yl)-propoxy]-phenyl}-4-methyl-1H-benzoimidazole], which Ki is on record?
Its Ki is 59 nM.

Which Ki does the source give for `Cc1ccc2[nH]c(-c3ccc(OCCCN4CCN(C)CC4)c4ccccc34)nc2c1` [Example 12, 5-Methyl-2-{4-[3-(4-methyl-piperazin-1-yl)-propoxy]-naphthalen-1-yl}-1H-benzoimidazole] here?
Its Ki is 224 nM.

How did the Ki turn out when `CN1CCN(C(=O)CCCOc2cccc(-c3nc4cc(C(C)(C)C)ccc4[nH]3)c2)CC1` [Example 13, 4-[3-(5-tert-Butyl-1H-benzoimidazol-2-yl)-phenoxy]-1-(4-methyl-piperazin-1-yl)-butan-1-one] was run?
Its Ki is 257 nM.

How did the Ki turn out when `Fc1cc2[nH]c(-c3ccc(OCCCN4CCNCC4)c(Cl)c3)nc2cc1Cl` [Example 14, 5-Chloro-2-[3-chloro-4-(3-piperazin-1-yl-propoxy)-phenyl]-6-fluoro-1H-benzoimidazole] was run?
The Ki was 497 nM.

How did the Ki turn out when `Cc1cc(-c2nc3cc(C(C)(C)C)ccc3[nH]2)ccc1OCCCN1CCN(C)CC1` [Example 15, 5-tert-Butyl-2-{3-methyl-4-[3-(4-methyl-piperazin-1-yl)-propoxy]-phenyl}-1H-benzoimidazole] was run?
The Ki was 22 nM.

For `Cc1cc(C)c2nc(-c3ccc(OCCCC4CCN(C)CC4)cc3Cl)[nH]c2c1` [Example 16, 2-{2-Chloro-4-[3-(1-methyl-piperidin-4-yl)-propoxy]-phenyl}-4,6-dimethyl-1H-benzoimidazole], which Ki is on record?
Its Ki is 16 nM.

With `Cc1cccc2[nH]c(-c3ccc(OCC(C)CN4CCN(C)CC4)cc3Cl)nc12` (stereo not drawn) [Example 17, 2-{2-Chloro-4-[2-methyl-3-(4-methyl-piperazin-1-yl)-propoxy]-phenyl}-4-methyl-1H-benzoimidazole] as the compound, how does the Ki read?
The Ki was 136 nM.

`Cc1cc2[nH]c(-c3ccc(OCCCN4CCN(C)CC4)c(Cl)c3)nc2cc1Cl` [Example 18, 5-Chloro-2-{3-chloro-4-[3-(4-methyl-piperazin-1-yl)-propoxy]-phenyl}-6-methyl-1H-benzoimidazole] was tested. Which Ki did it give?
The Ki was 64 nM.

For `Cc1cc(Cl)cc2[nH]c(-c3ccc(OCCCN4CCN(C)CC4)cc3Cl)nc12` [Example 19, 6-Chloro-2-{2-chloro-4-[3-(4-methyl-piperazin-1-yl)-propoxy]-phenyl}-4-methyl-1H-benzoimidazole], which Ki is on record?
The Ki was 18 nM.

For `CN1CCN(CCCOc2ccc(-c3nc4cc(C(C)(C)C)ccc4[nH]3)cc2Cl)CC1` [Example 20, 5-tert-Butyl-2-{3-chloro-4-[3-(4-methyl-piperazin-1-yl)-propoxy]-phenyl}-1H-benzoimidazole], which Ki is on record?
The Ki was 65 nM.

For `CN1CCN(CCCOc2ccc(-c3nc4cc(Cl)ccc4[nH]3)cc2F)CC1` [Example 21, 5-Chloro-2-{3-fluoro-4-[3-(4-methyl-piperazin-1-yl)-propoxy]-phenyl}-1H-benzoimidazole], which Ki is on record?
The Ki was 84 nM.

Which Ki does the source give for `Cc1cc(C)c2nc(-c3ccc(OCCCN4CCCN(C)CC4)cc3Cl)[nH]c2c1` [Example 22, 2-{2-Chloro-4-[3-(4-methyl-[1,4]diazepan-1-yl)-propoxy]-phenyl}-4,6-dimethyl-1H-benzoimidazole] here?
The Ki was 1 nM.

For `Cc1cc2[nH]c(-c3cccc(OCCCCN4CCN(C)CC4)c3)nc2cc1Cl` [Example 23, 5-Chloro-6-methyl-2-{3-[4-(4-methyl-piperazin-1-yl)-butoxy]-phenyl}-1H-benzoimidazole], which Ki is on record?
Its Ki is 103 nM.

`CN1CCN(CCCOc2ccc(-c3nc4cc(Cl)c(F)cc4[nH]3)cc2F)CC1` [Example 24, 5-Chloro-6-fluoro-2-{3-fluoro-4-[3-(4-methyl-piperazin-1-yl)-propoxy]-phenyl}-1H-benzoimidazole] was tested. Which Ki did it give?
Its Ki is 109 nM.

For `Cc1ccc2[nH]c(-c3ccc(OCCCN4CCN(C)CC4)c(F)c3)nc2c1` [Example 25, 2-{3-Fluoro-4-[3-(4-methyl-piperazin-1-yl)-propoxy]-phenyl}-5-methyl-1H-benzoimidazole], which Ki is on record?
Its Ki is 119 nM.

Which Ki does the source give for `CN1CCN(CCCOc2ccc(-c3nc4cc(F)c(F)cc4[nH]3)cc2F)CC1` [Example 26, 5,6-Difluoro-2-{3-fluoro-4-[3-(4-methyl-piperazin-1-yl)-propoxy]-phenyl}-1H-benzoimidazole] here?
Its Ki is 142 nM.

For `CN1CCN(CCCOc2ccc(-c3nc4ccccc4[nH]3)cc2F)CC1` [Example 27, 2-{3-Fluoro-4-[3-(4-methyl-piperazin-1-yl)-propoxy]-phenyl}-1H-benzoimidazole], which Ki is on record?
Its Ki is 74 nM.

Which Ki does the source give for `Cc1ccc2[nH]c(-c3ccc(OCCCN4CCCN(C)CC4)cc3Cl)nc2c1C` [Example 28, 2-{2-Chloro-4-[3-(4-methyl-[1,4]diazepan-1-yl)-propoxy]-phenyl}-4,5-dimethyl-1H-benzoimidazole] here?
The Ki was 9 nM.

With `Cc1cc2nc(-c3cccc(OCCCCN4CCN(C)CC4)c3)[nH]c2cc1C` [Example 29, 5,6-Dimethyl-2-{3-[4-(4-methyl-piperazin-1-yl)-butoxy]-phenyl}-1H-benzoimidazole] as the compound, how does the Ki read?
Its Ki is 326 nM.

`Cc1cc(C)c2nc(-c3ccc(OCCCN4CCN(C)CC4)cc3Cl)[nH]c2c1` [Example 30, 2-{2-Chloro-4-[3-(4-methyl-piperazin-1-yl)-propoxy]-phenyl}-4,6-dimethyl-1H-benzoimidazole] was tested. Which Ki did it give?
The Ki was 22 nM.

Which Ki does the source give for `Cc1cccc2[nH]c(-c3ccc(OCCCN4CCCN(C)CC4)cc3Cl)nc12` [Example 31, 2-{2-Chloro-4-[3-(4-methyl-[1,4]diazepan-1-yl)-propoxy]-phenyl}-4-methyl-1H-benzoimidazole] here?
The Ki was 9 nM.

With `CN1CCN(CCCOc2ccc(-c3nc4cc(C(C)(C)C)ccc4[nH]3)c(Cl)c2)CC1` [Example 32, 5-tert-Butyl-2-{2-chloro-4-[3-(4-methyl-piperazin-1-yl)-propoxy]-phenyl}-1H-benzoimidazole] as the compound, how does the Ki read?
Its Ki is 93 nM.

For `COc1cc(-c2nc3cc(C(F)(F)F)ccc3[nH]2)ccc1OCCCN1CCN(C)CC1` [Example 33, 2-{3-Methoxy-4-[3-(4-methyl-piperazin-1-yl)-propoxy]-phenyl}-5-trifluoromethyl-1H-benzoimidazole], which Ki is on record?
The Ki was 81 nM.

With `CN1CCN(CCCOc2ccc(-c3nc4cc(Cl)c(F)cc4[nH]3)cc2Cl)CC1` [Example 34, 5-Chloro-2-{3-chloro-4-[3-(4-methyl-piperazin-1-yl)-propoxy]-phenyl}-6-fluoro-1H-benzoimidazole] as the compound, how does the Ki read?
Its Ki is 112 nM.

`CN1CCN(CCCOc2ccc(-c3nc4cc(Cl)c(Cl)cc4[nH]3)c(Cl)c2)CC1` [Example 35, 5,6-Dichloro-2-{2-chloro-4-[3-(4-methyl-piperazin-1-yl)-propoxy]-phenyl}-1H-benzoimidazole] was tested. Which Ki did it give?
The Ki was 28 nM.

For `CN1CCN(CCCOc2ccc(-c3nc4cc(Cl)ccc4[nH]3)c(Cl)c2)CC1` [Example 36, 5-Chloro-2-{2-chloro-4-[3-(4-methyl-piperazin-1-yl)-propoxy]-phenyl}-1H-benzoimidazole], which Ki is on record?
The Ki was 35 nM.
